Where a SMILES comes first, the peptide text is derived from it. [ ]: non-standard residue; d: D form. The star is where a group is joined. Hydrocinnamoyl(4-OSO3H) = O=C(CCc1ccc(OS(=O)(=O)O)cc1)*; Acryloyl(3-(3-pyridyl),E) = O=C(/C=C/c1cccnc1)*; Propanoyl(3-(4-F-phenyl)) = O=C(CCc1ccc(F)cc1)*; Propanoyl(3-(4-MeO-Ph)) = COc1ccc(CCC(=O)*)cc1; Propanoyl(3-(4-Cl-Ph)) = O=C(CCc1ccc(Cl)cc1)*; 2Naphthoyl(6-OH) = O=C(c1ccc2cc(O)ccc2c1)*; Hydrocinnamoyl(4-Me) = Cc1ccc(CCC(=O)*)cc1; Quinoline3carbonyl = O=C(c1cnc2ccccc2c1)*; Dihydrocaffeoyl = O=C(CCc1ccc(O)c(O)c1)*; X35 = O=C(/C=C\c1ccc(OS(=O)(=O)O)cc1)*; X6 = O=C(/C=C\c1ccc([N+](=O)[O-])cc1)*; Desaminotyrosyl = O=C(CCc1ccc(O)cc1)*; Propanoyl(3-cHex) = O=C(CCC1CCCCC1)*; Butanoyl(4-Ph) = O=C(CCCc1ccccc1)*; 1Naphthoyl = O=C(c1cccc2ccccc12)*; 2Naphthoyl = O=C(c1ccc2ccccc2c1)*; Hydrocinnamoyl = O=C(CCc1ccccc1)*; NMeF = CN[C@@H](Cc1ccccc1)C(=O)O; X2 = O=C(c1cc2cc(Cl)ccc2[nH]1)*; X7 = CN(C)c1ccc(/C=C\C(=O)*)cc1; X8 = COc1ccc2[nH]c(C(=O)*)cc2c1; X1 = O=C(/C=C\c1ccc(O)c(O)c1)*; X34 = O=C(/C=C\c1ccc(Cl)cc1)*; X3 = O=C(/C=C/c1ccc(O)cc1)*; X4 = O=C(/C=C\c1ccc(F)cc1)*; X5 = O=C(CCc1cccc(O)c1)*; X9 = O=C(/C=C/c1cccs1)*; Boc = CC(C)(C)OC(=O)*
Key:
Cavia porcellus [1] = species: Cavia porcellus; experiment: Hydrolysis of phosphoinositide (PI) relative to maximal response elicited by CCK-8 in guinea pig pancreas.; format: functional
Cavia porcellus [2] = species: Cavia porcellus; experiment: Stimulation of amylase release in guinea pig pancreas; format: functional
[3] = molecular target: T1, Cholecystokinin receptor type A (Cavia porcellus, UniProt Q63931); experiment: Inhibition of specific binding of [125I]BH-CCK-8 in guinea pig pancreas.
T1 sequence (Q63931 whole entry): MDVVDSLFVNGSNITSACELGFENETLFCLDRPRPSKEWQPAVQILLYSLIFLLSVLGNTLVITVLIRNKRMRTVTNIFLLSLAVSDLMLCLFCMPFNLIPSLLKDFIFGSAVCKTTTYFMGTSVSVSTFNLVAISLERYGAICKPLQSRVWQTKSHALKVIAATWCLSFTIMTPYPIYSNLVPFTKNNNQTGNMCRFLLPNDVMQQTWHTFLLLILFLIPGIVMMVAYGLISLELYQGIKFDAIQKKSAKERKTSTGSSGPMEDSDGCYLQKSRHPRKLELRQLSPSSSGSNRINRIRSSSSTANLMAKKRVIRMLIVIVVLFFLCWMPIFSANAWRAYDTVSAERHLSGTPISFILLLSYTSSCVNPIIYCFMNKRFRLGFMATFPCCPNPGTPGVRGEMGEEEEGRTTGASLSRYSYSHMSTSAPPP

Structure (SMILES) | EC50 (Cavia porcellus [2]) [nM] | IC50 [3] [nM] | Max (Cavia porcellus [1]) [%]
CC(C)(C)OC(=O)N[C@@H](Cc1c[nH]c2ccccc12)C(=O)N[C@@H](CCCCNC(=O)c1ccc2cc(O)ccc2c1)C(=O)N[C@@H](CC(=O)O)C(=O)N[C@@H](Cc1ccccc1)C(N)=O (Boc-WK(2Naphthoyl(6-OH))DF-NH2) | 3.5 | 4.5 | 50
CN(C(=O)[C@H](CC(=O)O)NC(=O)[C@H](CCCCNC(=O)c1ccc2cc(O)ccc2c1)NC(=O)[C@H](Cc1c[nH]c2ccccc12)NC(=O)OC(C)(C)C)[C@@H](Cc1ccccc1)C(N)=O (Boc-WK(2Naphthoyl(6-OH))D[NMeF]-NH2) | 2.4 | 3.8 | 52
CC(C)(C)OC(=O)N[C@@H](Cc1c[nH]c2ccccc12)C(=O)N[C@@H](CCCCNC(=O)c1ccc2ccccc2c1)C(=O)N[C@@H](CC(=O)O)C(=O)N[C@@H](Cc1ccccc1)C(N)=O (Boc-WK(2Naphthoyl)DF-NH2) | 4 | 14 | 36
CC(C)(C)OC(=O)N[C@@H](Cc1c[nH]c2ccccc12)C(=O)N[C@@H](CCCCNC(=O)/C=C/c1cccnc1)C(=O)N[C@@H](CC(=O)O)C(=O)N[C@@H](Cc1ccccc1)C(N)=O (Boc-WK(Acryloyl(3-(3-pyridyl),E))DF-NH2) | 38 | 21 | 60
CC(C)(C)OC(=O)N[C@@H](Cc1c[nH]c2ccccc12)C(=O)N[C@@H](CCCCNC(=O)CCCc1ccccc1)C(=O)N[C@@H](CC(=O)O)C(=O)N[C@@H](Cc1ccccc1)C(N)=O (Boc-WK(Butanoyl(4-Ph))DF-NH2) | 30000 | 910 | 19
Cc1ccc(CCC(=O)NCCCC[C@H](NC(=O)[C@H](Cc2c[nH]c3ccccc23)NC(=O)OC(C)(C)C)C(=O)N[C@@H](CC(=O)O)C(=O)N[C@@H](Cc2ccccc2)C(N)=O)cc1 (Boc-WK(Hydrocinnamoyl(4-Me))DF-NH2) | 240 | 290 | 62
CC(C)(C)OC(=O)N[C@@H](Cc1c[nH]c2ccccc12)C(=O)N[C@@H](CCCCNC(=O)CCc1ccc(F)cc1)C(=O)N[C@@H](CC(=O)O)C(=O)N[C@@H](Cc1ccccc1)C(N)=O (Boc-WK(Propanoyl(3-(4-F-phenyl)))DF-NH2) | 450 | 250 | 68
COc1ccc(CCC(=O)NCCCC[C@H](NC(=O)[C@H](Cc2c[nH]c3ccccc23)NC(=O)OC(C)(C)C)C(=O)N[C@@H](CC(=O)O)C(=O)N[C@@H](Cc2ccccc2)C(N)=O)cc1 (Boc-WK(Propanoyl(3-(4-MeO-Ph)))DF-NH2) | 74 | 140 | 70
CC(C)(C)OC(=O)N[C@@H](Cc1c[nH]c2ccccc12)C(=O)N[C@@H](CCCCNC(=O)CCC1CCCCC1)C(=O)N[C@@H](CC(=O)O)C(=O)N[C@@H](Cc1ccccc1)C(N)=O (Boc-WK(Propanoyl(3-cHex))DF-NH2) | 30000 | 310 | 40
CC(C)(C)OC(=O)N[C@@H](Cc1c[nH]c2ccccc12)C(=O)N[C@@H](CCCCNC(=O)/C=C\c1ccc(F)cc1)C(=O)N[C@@H](CC(=O)O)C(=O)N[C@@H](Cc1ccccc1)C(N)=O (Boc-WK(X4)DF-NH2) | 16 | 65 | 74
CN(C)c1ccc(/C=C\C(=O)NCCCC[C@H](NC(=O)[C@H](Cc2c[nH]c3ccccc23)NC(=O)OC(C)(C)C)C(=O)N[C@@H](CC(=O)O)C(=O)N[C@@H](Cc2ccccc2)C(N)=O)cc1 (Boc-WK(X7)DF-NH2) | 17 | 120 | 49
COc1ccc2[nH]c(C(=O)NCCCC[C@H](NC(=O)[C@H](Cc3c[nH]c4ccccc34)NC(=O)OC(C)(C)C)C(=O)N[C@@H](CC(=O)O)C(=O)N[C@@H](Cc3ccccc3)C(N)=O)cc2c1 (Boc-WK(X8)DF-NH2) | 16 | 52 | 21
CC(C)(C)OC(=O)N[C@@H](Cc1c[nH]c2ccccc12)C(=O)N[C@@H](CCCCNC(=O)/C=C\c1ccc(Cl)cc1)C(=O)N[C@@H](CC(=O)O)C(=O)N[C@@H](Cc1ccccc1)C(N)=O (Boc-WK(X34)DF-NH2) | 79 | – | 66
CC(C)(C)OC(=O)N[C@@H](Cc1c[nH]c2ccccc12)C(=O)N[C@@H](CCCCNC(=O)/C=C\c1ccc(OS(=O)(=O)O)cc1)C(=O)N[C@@H](CC(=O)O)C(=O)N[C@@H](Cc1ccccc1)C(N)=O (Boc-WK(X35)DF-NH2) | 7.2 | – | 72

More lines, in order of falling EC50 (Cavia porcellus [2]), values ahead:

EC50 (Cavia porcellus [2]) [nM] | IC50 [3] [nM] | Structure (SMILES) | Max (Cavia porcellus [1]) [%]
2600 | – | CSCC[C@H](NC(=O)[C@H](Cc1c[nH]c2ccccc12)NC(=O)OC(C)(C)C)C(=O)N[C@@H](CC(=O)O)C(=O)N[C@@H](Cc1ccccc1)C(N)=O | 40
850 | 310 | CC(C)(C)OC(=O)N[C@@H](Cc1c[nH]c2ccccc12)C(=O)N[C@@H](CCCCNC(=O)CCc1ccccc1)C(=O)N[C@@H](CC(=O)O)C(=O)N[C@@H](Cc1ccccc1)C(N)=O (Boc-WK(Hydrocinnamoyl)DF-NH2) | 49
300 | 160 | CC(C)(C)OC(=O)N[C@@H](Cc1c[nH]c2ccccc12)C(=O)N[C@@H](CCCCNC(=O)CCc1ccc(O)c(O)c1)C(=O)N[C@@H](CC(=O)O)C(=O)N[C@@H](Cc1ccccc1)C(N)=O (Boc-WK(Dihydrocaffeoyl)DF-NH2) | 44
170 | 410 | CC(C)(C)OC(=O)N[C@@H](Cc1c[nH]c2ccccc12)C(=O)N[C@@H](CCCCNC(=O)CCc1ccc(Cl)cc1)C(=O)N[C@@H](CC(=O)O)C(=O)N[C@@H](Cc1ccccc1)C(N)=O (Boc-WK(Propanoyl(3-(4-Cl-Ph)))DF-NH2) | 51
160 | 400 | CC(C)(C)OC(=O)N[C@@H](Cc1c[nH]c2ccccc12)C(=O)N[C@@H](CCCCNC(=O)CCc1cccc(O)c1)C(=O)N[C@@H](CC(=O)O)C(=O)N[C@@H](Cc1ccccc1)C(N)=O (Boc-WK(X5)DF-NH2) | 46
98 | 76 | CC(C)(C)OC(=O)N[C@@H](Cc1c[nH]c2ccccc12)C(=O)N[C@@H](CCCCNC(=O)CCc1ccc(OS(=O)(=O)O)cc1)C(=O)N[C@@H](CC(=O)O)C(=O)N[C@@H](Cc1ccccc1)C(N)=O (Boc-WK(Hydrocinnamoyl(4-OSO3H))DF-NH2) | 68
92 | 120 | CC(C)(C)OC(=O)N[C@@H](Cc1c[nH]c2ccccc12)C(=O)N[C@@H](CCCCNC(=O)CCc1ccc(O)cc1)C(=O)N[C@@H](CC(=O)O)C(=O)N[C@@H](Cc1ccccc1)C(N)=O (Boc-WK(Desaminotyrosyl)DF-NH2) | 77
79 | 57 | CC(C)(C)OC(=O)N[C@@H](Cc1c[nH]c2ccccc12)C(=O)N[C@@H](CCCCNC(=O)c1cccc2ccccc12)C(=O)N[C@@H](CC(=O)O)C(=O)N[C@@H](Cc1ccccc1)C(N)=O (Boc-WK(1Naphthoyl)DF-NH2) | 61
62 | 110 | CC(C)(C)OC(=O)N[C@@H](Cc1c[nH]c2ccccc12)C(=O)N[C@@H](CCCCNC(=O)c1cc2cc(Cl)ccc2[nH]1)C(=O)N[C@@H](CC(=O)O)C(=O)N[C@@H](Cc1ccccc1)C(N)=O (Boc-WK(X2)DF-NH2) | 27
45 | 33 | CC(C)(C)OC(=O)N[C@@H](Cc1c[nH]c2ccccc12)C(=O)N[C@@H](CCCCNC(=O)/C=C\c1ccc(O)c(O)c1)C(=O)N[C@@H](CC(=O)O)C(=O)N[C@@H](Cc1ccccc1)C(N)=O (Boc-WK(X1)DF-NH2) | 66
39 | 33 | CC(C)(C)OC(=O)N[C@@H](Cc1c[nH]c2ccccc12)C(=O)N[C@@H](CCCCNC(=O)c1cnc2ccccc2c1)C(=O)N[C@@H](CC(=O)O)C(=O)N[C@@H](Cc1ccccc1)C(N)=O (Boc-WK(Quinoline3carbonyl)DF-NH2) | 46
32 | 30 | CN(C(=O)[C@H](CC(=O)O)NC(=O)[C@H](CCCCNC(=O)CCc1ccc(O)cc1)NC(=O)[C@H](Cc1c[nH]c2ccccc12)NC(=O)OC(C)(C)C)[C@@H](Cc1ccccc1)C(N)=O (Boc-WK(Desaminotyrosyl)D[NMeF]-NH2) | 77
28 | 28 | CN(C(=O)[C@H](CC(=O)O)NC(=O)[C@H](CCCCNC(=O)/C=C/c1cccnc1)NC(=O)[C@H](Cc1c[nH]c2ccccc12)NC(=O)OC(C)(C)C)[C@@H](Cc1ccccc1)C(N)=O (Boc-WK(Acryloyl(3-(3-pyridyl),E))D[NMeF]-NH2) | 74
27 | 57 | CC(C)(C)OC(=O)N[C@@H](Cc1c[nH]c2ccccc12)C(=O)N[C@@H](CCCCNC(=O)/C=C\c1ccc([N+](=O)[O-])cc1)C(=O)N[C@@H](CC(=O)O)C(=O)N[C@@H](Cc1ccccc1)C(N)=O (Boc-WK(X6)DF-NH2) | 64
20 | 50 | CC(C)(C)OC(=O)N[C@@H](Cc1c[nH]c2ccccc12)C(=O)N[C@@H](CCCCNC(=O)/C=C/c1cccs1)C(=O)N[C@@H](CC(=O)O)C(=O)N[C@@H](Cc1ccccc1)C(N)=O (Boc-WK(X9)DF-NH2) | 66
